The target in the assay is FKBP8 (FK506 binding protein 8) (Homo sapiens, UniProt Q14318). As to the kind of experiment: microscale thermophoresis competition with recombinant proteins. For orientation: MST reads how a fluorescent partner responds to local heating, with and without ligand.

This passage reports IC50 results from publication PMC9977574 (Gut, 2022).

Chain of FKBP8 (FK506 binding protein 8) (Q14318 whole entry): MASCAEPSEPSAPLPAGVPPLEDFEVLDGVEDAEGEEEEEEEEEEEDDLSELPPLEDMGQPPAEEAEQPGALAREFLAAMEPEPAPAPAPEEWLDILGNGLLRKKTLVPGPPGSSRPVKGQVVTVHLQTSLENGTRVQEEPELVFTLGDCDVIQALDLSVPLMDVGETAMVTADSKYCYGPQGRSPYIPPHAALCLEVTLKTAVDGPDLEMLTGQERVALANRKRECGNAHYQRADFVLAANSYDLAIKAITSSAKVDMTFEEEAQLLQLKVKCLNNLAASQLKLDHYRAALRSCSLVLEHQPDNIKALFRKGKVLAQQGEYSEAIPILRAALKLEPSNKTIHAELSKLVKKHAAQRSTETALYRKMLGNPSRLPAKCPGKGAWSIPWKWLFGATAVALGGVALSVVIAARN
Chain of FKBP8 (FK506 binding protein 8) (Q15746 whole entry partner): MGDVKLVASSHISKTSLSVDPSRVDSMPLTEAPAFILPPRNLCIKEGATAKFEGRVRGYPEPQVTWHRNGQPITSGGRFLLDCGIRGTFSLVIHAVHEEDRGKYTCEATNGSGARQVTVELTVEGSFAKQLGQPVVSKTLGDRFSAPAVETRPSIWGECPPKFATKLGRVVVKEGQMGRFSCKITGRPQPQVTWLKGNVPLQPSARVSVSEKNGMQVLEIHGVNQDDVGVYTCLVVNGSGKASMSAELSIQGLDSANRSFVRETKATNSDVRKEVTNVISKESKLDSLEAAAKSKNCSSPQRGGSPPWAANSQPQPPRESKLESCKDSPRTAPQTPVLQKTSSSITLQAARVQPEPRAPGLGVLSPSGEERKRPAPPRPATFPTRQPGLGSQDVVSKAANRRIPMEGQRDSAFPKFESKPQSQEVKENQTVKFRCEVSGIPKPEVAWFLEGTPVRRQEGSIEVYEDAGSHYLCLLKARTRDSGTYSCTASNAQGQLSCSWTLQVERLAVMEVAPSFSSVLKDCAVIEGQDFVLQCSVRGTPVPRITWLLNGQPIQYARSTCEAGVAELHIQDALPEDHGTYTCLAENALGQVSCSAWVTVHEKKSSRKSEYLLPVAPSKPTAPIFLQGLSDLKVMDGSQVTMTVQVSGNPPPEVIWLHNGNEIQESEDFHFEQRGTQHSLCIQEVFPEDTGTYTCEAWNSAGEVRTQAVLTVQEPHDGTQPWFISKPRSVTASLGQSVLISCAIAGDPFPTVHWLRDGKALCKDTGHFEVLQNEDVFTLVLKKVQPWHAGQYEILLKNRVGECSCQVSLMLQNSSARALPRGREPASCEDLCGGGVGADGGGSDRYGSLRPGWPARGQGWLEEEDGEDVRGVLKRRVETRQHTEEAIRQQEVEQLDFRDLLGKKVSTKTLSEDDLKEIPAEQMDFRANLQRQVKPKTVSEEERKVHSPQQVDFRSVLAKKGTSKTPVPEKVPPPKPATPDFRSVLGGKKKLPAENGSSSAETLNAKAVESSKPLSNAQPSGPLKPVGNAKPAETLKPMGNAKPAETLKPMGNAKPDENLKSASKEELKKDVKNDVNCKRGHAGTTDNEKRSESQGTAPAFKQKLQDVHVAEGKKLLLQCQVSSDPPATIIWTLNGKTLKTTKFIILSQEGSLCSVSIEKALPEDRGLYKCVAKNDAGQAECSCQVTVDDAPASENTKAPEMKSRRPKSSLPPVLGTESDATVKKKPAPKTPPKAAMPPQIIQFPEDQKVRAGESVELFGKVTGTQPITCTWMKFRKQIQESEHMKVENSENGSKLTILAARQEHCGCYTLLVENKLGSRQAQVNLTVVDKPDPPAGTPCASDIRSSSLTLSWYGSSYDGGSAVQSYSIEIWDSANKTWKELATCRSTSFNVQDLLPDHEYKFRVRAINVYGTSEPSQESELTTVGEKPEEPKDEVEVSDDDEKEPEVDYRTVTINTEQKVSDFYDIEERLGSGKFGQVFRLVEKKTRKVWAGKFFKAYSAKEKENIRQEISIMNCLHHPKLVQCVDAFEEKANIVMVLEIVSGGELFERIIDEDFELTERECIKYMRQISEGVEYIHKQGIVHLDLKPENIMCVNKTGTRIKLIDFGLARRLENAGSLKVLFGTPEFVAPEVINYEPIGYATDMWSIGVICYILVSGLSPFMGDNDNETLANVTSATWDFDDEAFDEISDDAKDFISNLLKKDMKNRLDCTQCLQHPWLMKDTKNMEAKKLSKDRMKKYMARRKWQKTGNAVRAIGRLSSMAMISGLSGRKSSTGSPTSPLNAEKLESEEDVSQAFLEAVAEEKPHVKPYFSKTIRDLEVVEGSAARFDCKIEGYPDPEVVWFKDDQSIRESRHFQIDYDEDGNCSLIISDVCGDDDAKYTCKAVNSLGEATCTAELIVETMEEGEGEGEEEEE

As usually defined, the IC50 is the concentration that inhibits the measured activity by half. As for `C=CC[C@@H]1/C=C(\C)C[C@H](C)C[C@H](OC)[C@H]2O[C@@](O)(C(=O)C(=O)N3CCCC[C@H]3C(=O)O[C@H](/C(C)=C/[C@@H]3CC[C@@H](O)[C@H](OC)C3)[C@H](C)[C@@H](O)CC1=O)[C@H](C)C[C@@H]2OC` [tacrolimus], the IC50 is 68.7 ± 13.3 µM.
